Data taken from patent US20240287080A1 (IDEAYA Biosciences Inc., priority 2021, published 2024).

Target: T1, Pol theta (1-899) (Homo sapiens, UniProt O75417)
T1 construct: Pol theta (1-899) (5 nM) in assay buffer
Assay: Pol theta ATPase activity, NADH oxidation-coupled enzymatic assay (ATPase NADH coupling: Standard Screening: hPolQ)
Assay type: biochemical
Conditions: Pol theta (1-899) 5 nM
How it was run: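 NADH-coupled ATPase readout: 5 nM Pol theta (1-899) preincubated 15 min with 10-point compound series in Tris pH 7.80, KCl, MgCl2, DTT, BSA, Tween, glycerol, then 100 μM ATP, 300 nM 50-mer poly-dT ssDNA, NADH, PEP, LDH and PK added (stock levels). A340 followed 60 min; slopes fit four-parameter for IC50.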

[1] = NADH oxidation-coupled ATPase assay, compounds of Table 3

T1 sequence (O75417 1-899): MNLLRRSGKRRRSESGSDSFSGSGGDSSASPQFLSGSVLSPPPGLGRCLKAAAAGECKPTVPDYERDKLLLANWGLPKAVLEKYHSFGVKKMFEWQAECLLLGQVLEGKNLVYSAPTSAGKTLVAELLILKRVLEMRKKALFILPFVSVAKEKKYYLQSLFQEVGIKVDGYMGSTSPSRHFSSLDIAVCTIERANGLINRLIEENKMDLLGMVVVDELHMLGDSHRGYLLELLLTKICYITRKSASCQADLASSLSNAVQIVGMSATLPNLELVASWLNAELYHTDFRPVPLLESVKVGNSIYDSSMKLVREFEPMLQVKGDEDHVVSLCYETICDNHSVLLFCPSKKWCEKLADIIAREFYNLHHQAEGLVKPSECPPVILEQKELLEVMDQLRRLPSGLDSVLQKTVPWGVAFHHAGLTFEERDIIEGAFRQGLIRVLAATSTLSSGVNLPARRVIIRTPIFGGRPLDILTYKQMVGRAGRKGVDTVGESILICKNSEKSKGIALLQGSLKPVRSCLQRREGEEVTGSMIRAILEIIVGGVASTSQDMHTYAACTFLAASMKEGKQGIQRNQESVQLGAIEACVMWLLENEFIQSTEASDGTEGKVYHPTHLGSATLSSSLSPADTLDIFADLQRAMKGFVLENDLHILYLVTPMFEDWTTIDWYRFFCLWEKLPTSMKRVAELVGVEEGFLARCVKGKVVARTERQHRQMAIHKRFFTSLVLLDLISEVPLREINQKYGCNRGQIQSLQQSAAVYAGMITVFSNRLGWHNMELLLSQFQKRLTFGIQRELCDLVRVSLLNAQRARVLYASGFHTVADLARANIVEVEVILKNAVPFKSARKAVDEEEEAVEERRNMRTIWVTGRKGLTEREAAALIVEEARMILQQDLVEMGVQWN

IC50 [1] [nM]	IC50 (Table 5, ATP, dT50 ssDNA) [nM]	Structure (SMILES)	also measured
200 to 500		COc1nnc(NC(=O)c2cc(C#N)ncc2-c2cc(Cl)ncc2OC)s1 [Example 290, 2′-chloro-6-cyano-5′-methoxy-N-(5-methoxy-1,3,4-thiadiazol-2-yl)-[3,4′-bipyridine]-4-carboxamide]	
500 to 1000		COc1nnc(NC(=O)c2cnc(C)cc2-c2ccc3ccccc3c2)s1 [Example 363, N-(5-methoxy-1,3,4-thiadiazol-2-yl)-6-methyl-4-(naphthalen-2-yl)pyridine-3-carboxamide]	
	≤ 200	COc1cnc(Cl)cc1-c1cc(C)ncc1C(=O)Nc1nnc(O[C@@H]2CCC[C@@H](OC)C2)s1 (single isomer, unassigned) [Example 148]	
	≤ 200	COc1cnc(Cl)c(F)c1-c1cc(C)ncc1C(=O)Nc1nnc(O[C@@H]2COC3(CC3)C2)s1 (single isomer, unassigned) [Example 209]	
	≤ 200	COc1cnc(Cl)c(F)c1-c1cc(C)ncc1C(=O)Nc1nnc(O[C@H]2CCO[C@H]2C)s1 (single isomer, unassigned) [Example 164]	
1000 to 10000		COc1nnc(NC(=O)c2cnc(C)cc2-c2cccc(C(=O)N(C)C)c2)s1 [Example 336, 4-[3-(dimethylcarbamoyl)phenyl]-N-(5-methoxy-1,3,4-thiadiazol-2-yl)-6-methylpyridine-3-carboxamide]	
≤ 200		CCOc1cc(C(=O)Nc2nnc(OC)s2)c(-c2cc(Cl)ncc2OC)cn1 [Example 276, 2′-chloro-6-ethoxy-5′-methoxy-N-(5-methoxy-1,3,4-thiadiazol-2-yl)-[3,4′-bipyridine]-4-carboxamide]	
200 to 500		COc1nnc(NC(=O)c2cnc(C)cc2-c2cc(C)c([S@+](C)[O-])cc2OC)s1 (single isomer, unassigned) [Example 307]	
≤ 200		COc1cnc(C)c(F)c1-c1cc(C)ncc1C(=O)Nc1nnc(OC2([C@@H]3CCOC3)CC2)s1 (single isomer, unassigned) [Example 293]	
	≤ 200	COc1cnc(Cl)cc1-c1cc(C)ncc1C(=O)Nc1nnc(O[C@H]2CC[C@H]([C@@H](C)O)CC2)s1 (single isomer, unassigned) [Example 199]	
1000 to 10000		COc1nnc(NC(=O)c2cnc(C)cc2-c2cccc3c2ccn3C)s1 [Example 482, N-(5-methoxy-1,3,4-thiadiazol-2-yl)-6-methyl-4-(1-methyl-1H-indol-4-yl)pyridine-3-carboxamide]	
1000 to 10000		COc1nnc(NC(=O)c2cnc(C)cc2-c2cccnc2)s1 [Example 331, N-(5-methoxy-1,3,4-thiadiazol-2-yl)-6′-methyl-[3,4′-bipyridine]-3′-carboxamide]	
1000 to 10000		COc1nnc(NC(=O)c2cnc(C)cc2-c2ccc(F)cc2)s1 [Example 368, 4-(4-fluorophenyl)-N-(5-methoxy-1,3,4-thiadiazol-2-yl)-6-methylpyridine-3-carboxamide]	
1000 to 10000		COc1nnc(NC(=O)c2cnc(C)cc2-c2coc3ccccc23)s1 [Example 436, 4-(1-benzofuran-3-yl)-N-(5-methoxy-1,3,4-thiadiazol-2-yl)-6-methylpyridine-3-carboxamide]	
		COc1cccc(F)c1-c1cc(C)ncc1C(=O)Nc1nnc(OCC(C)(C)C(F)(F)F)s1 [Example 4, 4-(2-fluoro-6-methoxyphenyl)-6-methyl-N-(5-(3,3,3-trifluoro-2,2-dimethylpropoxy)-1,3,4-thiadiazol-2-yl)pyridine-3-carboxamide]	IC50 (Table 4, ATP, dT50 ssDNA): 200 to 500 nM
	≤ 200	COc1cnc(Cl)cc1-c1cc(C)ncc1C(=O)Nc1nnc(O[C@@H]2COCC2(F)F)s1 (single isomer, unassigned) [Example 127]	
	≤ 200	COc1cnc(Cl)cc1-c1cc(C)ncc1C(=O)Nc1nnc(O[C@H]2C[C@@H]3CC[C@H]2O3)s1 (single isomer, unassigned) [Example 217]	
	200 to 500	COc1cnc(Cl)cc1-c1cc(C)ncc1C(=O)Nc1nnc(O[C@H]2CCO[C@H]2C)s1 (racemic) [Example 92, rac-2′-Chloro-5′-methoxy-6-methyl-N-(5-(((2R,3R)-2-methyltetrahydrofuran-3-yl)oxy)-1,3,4-thiadiazol-2-yl)-(4,4′-bipyridine)-3-carboxamide]	
	≤ 200	COc1cnc(Cl)cc1-c1cc(C)ncc1C(=O)Nc1nnc(O[C@H]2CC[C@](C)(O)CC2)s1 (single isomer, unassigned) [Example 140, 2′-chloro-N-(5-(((1r,4r)-4-hydroxy-4-methylcyclohexyl)oxy)-1,3,4-thiadiazol-2-yl)-5′-methoxy-6-methyl-(4,4′-bipyridine)-3-carboxamide]	
	≤ 200	COc1cnc(Br)cc1-c1cc(C)ncc1C(=O)Nc1nnc(O[C@@H]2CCOC2)s1 [Example 84]	
≤ 200		CC[S@@+]([O-])c1cc(OC)c(-c2cc(C)ncc2C(=O)Nc2nnc(OC)s2)cc1Cl (single isomer, unassigned) [Example 313]	
1000 to 10000		COc1ccc(-c2cc(C)ncc2C(=O)Nc2nnc(OC)s2)c(F)c1 [Example 445, 4-(2-fluoro-4-methoxyphenyl)-N-(5-methoxy-1,3,4-thiadiazol-2-yl)-6-methylnicotinamide]	
		COc1nnc(NC(=O)c2cc(CO)ncc2-c2c(F)cccc2OC)s1 [Example 121, 5-(2-fluoro-6-methoxyphenyl)-2-(hydroxymethyl)-N-(5-methoxy-1,3,4-thiadiazol-2-yl)isonicotinamide]	IC50 (Table 5, values given as bound, ATP, dT50 ssDNA): > 10000 nM
